± gives the expanded uncertainty stated by the source.
Conditions: Crystal; Phase equilibration

`O=C([O-])CCP(=O)(O)c1ccccc1.[Na+]` [monosodium 3-(hydroxyphenylphosphinyl)propanoate] gave a Normal melting temperature of 231 ± 0.7 °C.

From the NIST ThermoML archive (doi:10.1016/j.fluid.2013.02.001)
